Assay results as given in the kinase profiling compilation of Christmann-Franck et al. (2016).

What was measured:
Assay in all cases: KINOMEscan competition binding
Details in all cases: compound 10.0 µM
STK24 (human) = STK24 (human) (UniProt Q9Y6E0)
CLK2 (human) = CLK2 (human) (UniProt P49760)
MAP2K5 (human) = MAP2K5 (human) (UniProt Q13163)
PLK4 (human) = PLK4 (human) (UniProt O00444)
ABL2 (human) = ABL2 (human) (UniProt P42684)
STK35 (human) = STK35 (human) (UniProt Q8TDR2)
EPHA6 (human) = EPHA6 (human) (UniProt Q9UF33)
Sequence of EPHA6 (human) (Q9UF33 whole entry, looked up): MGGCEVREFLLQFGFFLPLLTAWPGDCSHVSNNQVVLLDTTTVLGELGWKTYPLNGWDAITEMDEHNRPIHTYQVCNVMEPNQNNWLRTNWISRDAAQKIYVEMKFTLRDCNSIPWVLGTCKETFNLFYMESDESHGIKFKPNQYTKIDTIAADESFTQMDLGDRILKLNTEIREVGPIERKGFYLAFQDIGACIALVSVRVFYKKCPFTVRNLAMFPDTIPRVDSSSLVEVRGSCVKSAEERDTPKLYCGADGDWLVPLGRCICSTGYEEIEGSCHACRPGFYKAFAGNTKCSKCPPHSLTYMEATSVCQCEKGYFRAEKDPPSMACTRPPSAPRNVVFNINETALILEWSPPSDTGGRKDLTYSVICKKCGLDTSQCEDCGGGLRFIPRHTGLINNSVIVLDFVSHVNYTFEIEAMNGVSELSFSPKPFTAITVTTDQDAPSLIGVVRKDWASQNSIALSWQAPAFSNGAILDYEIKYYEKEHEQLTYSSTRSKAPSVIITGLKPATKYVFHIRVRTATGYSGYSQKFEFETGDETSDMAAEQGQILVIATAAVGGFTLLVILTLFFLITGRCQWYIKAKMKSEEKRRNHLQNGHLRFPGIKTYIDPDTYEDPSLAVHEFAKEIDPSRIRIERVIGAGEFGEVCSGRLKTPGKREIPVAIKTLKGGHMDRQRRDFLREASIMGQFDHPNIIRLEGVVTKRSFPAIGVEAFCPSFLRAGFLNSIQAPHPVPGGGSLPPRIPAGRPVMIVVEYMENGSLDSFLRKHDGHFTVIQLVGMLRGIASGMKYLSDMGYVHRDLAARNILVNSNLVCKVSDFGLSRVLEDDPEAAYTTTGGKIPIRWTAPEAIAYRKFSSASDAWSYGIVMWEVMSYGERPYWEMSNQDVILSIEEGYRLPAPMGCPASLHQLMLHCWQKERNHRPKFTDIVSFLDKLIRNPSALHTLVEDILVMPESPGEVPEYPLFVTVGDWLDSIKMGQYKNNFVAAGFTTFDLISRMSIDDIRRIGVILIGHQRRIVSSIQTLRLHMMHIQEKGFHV

TIE1 (human) = TIE1 (human) (UniProt P35590)
MAP3K10 (human) = MAP3K10 (human) (UniProt Q02779)
MST1R (human) = MST1R (human) (UniProt Q04912)
TRPM6 (human) = TRPM6 (human) (UniProt Q9BX84)
STK38 (human) = STK38 (human) (UniProt Q15208)
[1] = system: ABL1 (human), P00519 [M351T]
PIK3C2G (human) = PIK3C2G (human) (UniProt O75747)
CSNK2A2 (human) = CSNK2A2 (human) (UniProt P19784)
MAPK6 (human) = MAPK6 (human) (UniProt Q16659)
MARK3 (human) = MARK3 (human) (UniProt P27448)
MAK (human) = MAK (human) (UniProt P20794)
Sequence of MAK (human) (P20794 whole entry, looked up): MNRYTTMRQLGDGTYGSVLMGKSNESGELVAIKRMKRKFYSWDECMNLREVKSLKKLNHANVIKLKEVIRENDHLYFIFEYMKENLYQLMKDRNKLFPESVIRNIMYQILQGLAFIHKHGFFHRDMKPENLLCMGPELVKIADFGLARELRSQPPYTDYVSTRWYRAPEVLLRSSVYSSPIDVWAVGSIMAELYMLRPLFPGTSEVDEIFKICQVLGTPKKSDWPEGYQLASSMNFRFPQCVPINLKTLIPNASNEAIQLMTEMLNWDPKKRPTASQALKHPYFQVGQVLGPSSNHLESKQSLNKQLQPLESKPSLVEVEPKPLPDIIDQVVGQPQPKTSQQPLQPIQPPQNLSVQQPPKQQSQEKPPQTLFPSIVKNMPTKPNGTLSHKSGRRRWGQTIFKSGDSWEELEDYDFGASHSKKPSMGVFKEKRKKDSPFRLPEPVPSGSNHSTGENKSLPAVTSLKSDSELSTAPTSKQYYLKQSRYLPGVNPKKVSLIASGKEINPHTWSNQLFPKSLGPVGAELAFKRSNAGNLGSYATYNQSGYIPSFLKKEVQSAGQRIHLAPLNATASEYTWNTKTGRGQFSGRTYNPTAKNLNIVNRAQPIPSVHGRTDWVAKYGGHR

PDGFRA (human) = PDGFRA (human) (UniProt P16234)
MAP4K3 (human) = MAP4K3 (human) (UniProt Q8IVH8)
PRKG1 (human) = PRKG1 (human) (UniProt Q13976)
BMPR2 (human) = BMPR2 (human) (UniProt Q13873)
DYRK1A (human) = DYRK1A (human) (UniProt Q13627)
CAMK2B (human) = CAMK2B (human) (UniProt Q13554)
TSSK1B (human) = TSSK1B (human) (UniProt Q9BXA7)
PIP5K1C (human) = PIP5K1C (human) (UniProt O60331)
CaMK1 (human) = CaMK1 (human) (UniProt Q14012)
RIPK4 (human) = RIPK4 (human) (UniProt P57078)
Sequence of RIPK4 (human) (P57078 whole entry, looked up): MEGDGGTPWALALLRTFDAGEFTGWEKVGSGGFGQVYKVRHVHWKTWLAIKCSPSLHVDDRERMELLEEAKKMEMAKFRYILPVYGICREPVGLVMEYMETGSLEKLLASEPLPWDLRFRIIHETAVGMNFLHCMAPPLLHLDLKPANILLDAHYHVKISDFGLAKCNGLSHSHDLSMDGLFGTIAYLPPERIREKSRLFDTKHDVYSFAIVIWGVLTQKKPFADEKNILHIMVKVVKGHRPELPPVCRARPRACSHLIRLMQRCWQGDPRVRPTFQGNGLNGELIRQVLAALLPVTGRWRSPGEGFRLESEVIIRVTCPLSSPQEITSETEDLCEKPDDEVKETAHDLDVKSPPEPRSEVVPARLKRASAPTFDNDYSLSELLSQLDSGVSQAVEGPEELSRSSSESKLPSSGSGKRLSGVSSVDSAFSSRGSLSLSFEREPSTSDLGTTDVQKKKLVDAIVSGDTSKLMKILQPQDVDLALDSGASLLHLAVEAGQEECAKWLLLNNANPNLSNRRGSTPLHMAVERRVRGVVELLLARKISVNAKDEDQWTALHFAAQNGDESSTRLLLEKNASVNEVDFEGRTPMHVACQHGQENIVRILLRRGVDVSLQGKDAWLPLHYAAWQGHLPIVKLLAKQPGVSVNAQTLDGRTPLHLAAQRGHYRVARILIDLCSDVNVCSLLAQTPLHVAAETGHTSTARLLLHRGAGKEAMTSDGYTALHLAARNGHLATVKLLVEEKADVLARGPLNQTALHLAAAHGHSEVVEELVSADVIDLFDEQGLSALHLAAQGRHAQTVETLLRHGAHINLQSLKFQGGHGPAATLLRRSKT

MATK (human) = MATK (human) (UniProt P42679)
NEK5 (human) = NEK5 (human) (UniProt Q6P3R8)
Sequence of NEK5 (human) (Q6P3R8 whole entry, looked up): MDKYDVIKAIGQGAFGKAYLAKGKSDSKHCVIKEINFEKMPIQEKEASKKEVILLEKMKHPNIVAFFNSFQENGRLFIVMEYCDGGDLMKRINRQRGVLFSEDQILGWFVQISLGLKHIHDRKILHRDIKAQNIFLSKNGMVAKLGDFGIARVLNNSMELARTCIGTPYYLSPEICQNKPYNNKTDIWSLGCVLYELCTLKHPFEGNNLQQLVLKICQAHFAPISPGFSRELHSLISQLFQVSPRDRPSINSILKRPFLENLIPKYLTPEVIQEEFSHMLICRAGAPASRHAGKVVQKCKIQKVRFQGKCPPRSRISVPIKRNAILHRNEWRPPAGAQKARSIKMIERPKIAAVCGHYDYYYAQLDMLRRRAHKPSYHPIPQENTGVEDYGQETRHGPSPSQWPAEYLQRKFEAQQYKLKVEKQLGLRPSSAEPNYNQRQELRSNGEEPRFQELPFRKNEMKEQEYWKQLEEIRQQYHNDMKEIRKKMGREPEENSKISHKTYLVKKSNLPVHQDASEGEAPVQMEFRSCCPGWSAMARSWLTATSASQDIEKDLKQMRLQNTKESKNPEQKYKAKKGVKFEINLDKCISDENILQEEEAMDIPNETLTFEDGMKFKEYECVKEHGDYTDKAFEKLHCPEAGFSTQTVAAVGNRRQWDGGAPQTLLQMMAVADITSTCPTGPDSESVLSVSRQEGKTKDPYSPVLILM

LCK (human) = LCK (human) (UniProt P06239)
MYLK3 (human) = MYLK3 (human) (UniProt Q32MK0)
PTK2B (human) = PTK2B (human) (UniProt Q14289)
Sequence of PTK2B (human) (Q14289 whole entry, looked up): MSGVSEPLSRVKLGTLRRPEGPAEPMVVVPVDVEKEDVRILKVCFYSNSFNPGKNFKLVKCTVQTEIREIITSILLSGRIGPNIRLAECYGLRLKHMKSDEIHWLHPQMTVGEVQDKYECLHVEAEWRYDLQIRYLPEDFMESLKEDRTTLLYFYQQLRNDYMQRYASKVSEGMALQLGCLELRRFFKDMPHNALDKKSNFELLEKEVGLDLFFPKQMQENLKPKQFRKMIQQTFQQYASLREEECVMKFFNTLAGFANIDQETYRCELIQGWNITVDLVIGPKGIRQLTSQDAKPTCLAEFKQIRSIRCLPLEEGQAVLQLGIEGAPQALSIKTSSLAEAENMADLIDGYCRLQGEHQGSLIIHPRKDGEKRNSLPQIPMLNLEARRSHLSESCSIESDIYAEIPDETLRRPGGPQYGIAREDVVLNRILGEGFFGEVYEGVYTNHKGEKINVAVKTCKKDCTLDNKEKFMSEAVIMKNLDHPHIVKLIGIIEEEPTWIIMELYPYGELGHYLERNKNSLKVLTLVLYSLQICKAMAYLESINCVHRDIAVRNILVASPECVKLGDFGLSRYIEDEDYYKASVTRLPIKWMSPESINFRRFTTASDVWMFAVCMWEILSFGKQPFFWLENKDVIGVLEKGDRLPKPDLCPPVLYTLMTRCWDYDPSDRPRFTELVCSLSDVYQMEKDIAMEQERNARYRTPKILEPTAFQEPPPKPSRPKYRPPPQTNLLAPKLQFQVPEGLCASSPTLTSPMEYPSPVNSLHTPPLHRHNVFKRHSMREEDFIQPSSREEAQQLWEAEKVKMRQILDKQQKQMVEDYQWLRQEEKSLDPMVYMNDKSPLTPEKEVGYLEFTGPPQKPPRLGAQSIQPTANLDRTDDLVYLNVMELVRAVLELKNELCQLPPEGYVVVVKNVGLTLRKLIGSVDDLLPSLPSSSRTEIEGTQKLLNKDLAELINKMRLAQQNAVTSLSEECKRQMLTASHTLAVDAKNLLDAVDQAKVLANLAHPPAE

AURKB (human) = AURKB (human) (UniProt Q96GD4)
MTOR (human) = MTOR (human) (UniProt P42345)
PTK2 (human) = PTK2 (human) (UniProt Q05397)
CAMK2G (human) = CAMK2G (human) (UniProt Q13555)
CLK1 (human) = CLK1 (human) (UniProt P49759)
MAP2K4 (human) = MAP2K4 (human) (UniProt P45985)
CDK19 (human) = CDK19 (human) (UniProt Q9BWU1)
ICK (human) = ICK (human) (UniProt Q9UPZ9)
MAPK3 (human) = MAPK3 (human) (UniProt P27361)
Sequence of MAPK3 (human) (P27361 whole entry, looked up): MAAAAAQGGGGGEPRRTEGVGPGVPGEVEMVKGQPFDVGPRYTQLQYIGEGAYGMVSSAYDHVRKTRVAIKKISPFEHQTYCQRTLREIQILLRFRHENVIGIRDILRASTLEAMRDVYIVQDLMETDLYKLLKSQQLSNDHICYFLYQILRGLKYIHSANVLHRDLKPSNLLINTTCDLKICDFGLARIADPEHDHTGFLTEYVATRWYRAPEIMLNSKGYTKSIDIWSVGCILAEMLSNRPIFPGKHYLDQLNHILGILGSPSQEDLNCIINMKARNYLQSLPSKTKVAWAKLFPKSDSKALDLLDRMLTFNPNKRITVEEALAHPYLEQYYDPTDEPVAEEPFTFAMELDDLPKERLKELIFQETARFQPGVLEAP

Sequence of MAP2K5 (human) (Q13163 whole entry, looked up): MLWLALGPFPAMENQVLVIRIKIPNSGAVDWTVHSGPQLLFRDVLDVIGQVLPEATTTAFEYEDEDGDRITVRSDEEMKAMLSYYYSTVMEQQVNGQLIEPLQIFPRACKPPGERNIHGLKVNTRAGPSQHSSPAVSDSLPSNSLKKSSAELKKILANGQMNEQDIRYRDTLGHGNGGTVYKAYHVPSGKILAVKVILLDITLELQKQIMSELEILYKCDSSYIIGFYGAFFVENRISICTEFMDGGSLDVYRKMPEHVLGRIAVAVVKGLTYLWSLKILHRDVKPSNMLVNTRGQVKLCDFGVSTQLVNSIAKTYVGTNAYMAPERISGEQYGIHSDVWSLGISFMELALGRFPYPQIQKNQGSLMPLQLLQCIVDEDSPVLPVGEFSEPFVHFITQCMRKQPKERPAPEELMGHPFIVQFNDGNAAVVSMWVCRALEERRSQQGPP

Cc1cc([C@@H](C)Nc2ccccc2C(=O)O)c2nc(N3CCOCC3)cc(=O)n2c1
kinase still bound, per cent of control (STK24 (human)): 85%
kinase still bound, per cent of control (CLK2 (human)): 100%
kinase still bound, per cent of control (MAP2K5 (human)): 100%
kinase still bound, per cent of control (PLK4 (human)): 100%
kinase still bound, per cent of control (ABL2 (human)): 100%
kinase still bound, per cent of control (STK35 (human)): 96%
kinase still bound, per cent of control (EPHA6 (human)): 100%
kinase still bound, per cent of control (TIE1 (human)): 100%
kinase still bound, per cent of control (MAP3K10 (human)): 96%
kinase still bound, per cent of control (MST1R (human)): 96%
kinase still bound, per cent of control (TRPM6 (human)): 64%
kinase still bound, per cent of control (STK38 (human)): 84%
kinase still bound, per cent of control [1]: 100%
kinase still bound, per cent of control (PIK3C2G (human)): 16%
kinase still bound, per cent of control (CSNK2A2 (human)): 64%
kinase still bound, per cent of control (MAPK6 (human)): 78%
kinase still bound, per cent of control (MARK3 (human)): 95%
kinase still bound, per cent of control (MAK (human)): 100%
kinase still bound, per cent of control (PDGFRA (human)): 100%
kinase still bound, per cent of control (MAP4K3 (human)): 99%
kinase still bound, per cent of control (PRKG1 (human)): 79%
kinase still bound, per cent of control (BMPR2 (human)): 84%
kinase still bound, per cent of control (DYRK1A (human)): 99%
kinase still bound, per cent of control (CAMK2B (human)): 89%
kinase still bound, per cent of control (TSSK1B (human)): 79%
kinase still bound, per cent of control (PIP5K1C (human)): 55%
kinase still bound, per cent of control (CaMK1 (human)): 94%
kinase still bound, per cent of control (RIPK4 (human)): 87%
kinase still bound, per cent of control (MATK (human)): 57%
kinase still bound, per cent of control (NEK5 (human)): 100%
kinase still bound, per cent of control (LCK (human)): 81%
kinase still bound, per cent of control (MYLK3 (human)): 82%
kinase still bound, per cent of control (PTK2B (human)): 90%
kinase still bound, per cent of control (AURKB (human)): 76%
kinase still bound, per cent of control (MTOR (human)): 18%
kinase still bound, per cent of control (PTK2 (human)): 80%
kinase still bound, per cent of control (CAMK2G (human)): 87%
kinase still bound, per cent of control (CLK1 (human)): 56%
kinase still bound, per cent of control (MAP2K4 (human)): 70%
kinase still bound, per cent of control (CDK19 (human)): 100%
kinase still bound, per cent of control (ICK (human)): 100%
kinase still bound, per cent of control (MAPK3 (human)): 94%
